Patent publication US10537561B2 (Novartis AG, priority 2011, dated 2020)
One block for each compound: values may come before it.

Assays:
PDGFR-β = PDGFR-β (Homo sapiens, UniProt P09619); experiment: PDGFR-β inhibition; type: biochemical; details: read-out: PDGFR-β IC-50
CSF-1R = CSF-1R (Homo sapiens, UniProt P07333); experiment: CSF-1R inhibition, biochemical assay
[1] = test system: glioma in RCAS-PDGF-B-HA/Nestin-Tv-a; Ink4a/Arf−/− mice; experiment: Histologic analyses of tumors from short-term trial; type: in vivo, mouse; details: for Apoptosis (% CC3+) / Macrophages (% CD68+) / Total DAPI+ Cells / Tumor Cells (% Olig2+) / Phagocytic Capacity / Vasculature (CD31 MVD): vs vehicle
Experimental: The analyses were performed on tissues from the short-term trial (see Example 5), so that tumors from the different treatment groups could be compared at the same defined endpoint. Tumor cell density was examined using the oligodendrocyte marker Olig2, which has previously been used to identify glioma cells. […] (FIG. 6A).
To isolate tissues for snap freezing in liquid nitrogen, mice were euthanized by carbon dioxide asphyxiation or fully anesthetized with avertin (2,2,2-tribromoethanol, Sigma) and cervically dislocated prior to tissue harvest. For flow cytometry, mice were fully anesthetized with avertin and transcardially perfused with 20 ml of PBS. The brain was then isolated and the tumor macrodissected from the surrounding normal tissue. For proliferation analysis, mice were injected intraperitoneally with […] of bromodeoxyuridine (BrdU; Sigma) 2 hours prior to sacrifice. To isolate tissues for frozen histology, mice were fully anesthetized with avertin, transcardially perfused with 10 ml of PBS, followed by 10 ml of 4% paraformaldehyde in PBS (PFA). The brain was postfixed in PFA overnight at 4° C. while other tissues were cryopreserved in 30% sucrose at 4° C. After post-fixation, the brain was then transferred to 30% sucrose and incubated at 4° C. until the brain was fully equilibrated and sank to the bottom of the tube (typically 2 to 3 days). All tissues were then embedded in OCT (Tissue-Tek) and 10 μm cryostat tissue sections were used for all subsequent analysis.
For immunofluorescence, 10 μm thick frozen sections were thawed and dried at room temperature and then washed in PBS. For the standard staining protocol, tissue sections were blocked in 0.5% PNB in PBS for at least 1 hour at room temperature or up to overnight at 4° C., followed by incubation in primary antibody in 0.25% PNB for 2 hours at room temperature or overnight at 4° C. Sections were then washed in PBS and incubated with the appropriate fluorophore-conjugated secondary antibody (Molecular Probes) at a dilution 1:500 in 0.25% PNB for 1 hour at room temperature. After washing in PBS, tissue sections were counterstained with DAPI (5 mg/ml stock diluted 1:5000 in PBS) for 5 minutes prior to mounting with ProLong Gold Antifade mounting media (Invitrogen).
For angiogenesis and proliferation analysis, tissue sections were first subjected to citrate buffer based antigen retrieval by submerging in antigen unmasking solution (0.94% v/v in distilled water; Vector Laboratories) and microwaving for 10 minutes on half power, followed by cooling to room temperature for at least 30 minutes. For angiogenesis analysis, tissues were then washed in PBS and blocked with mouse Ig blocking reagent (Vector Laboratories) according to the manufacturer's instructions for 1 hour at room temperature. For proliferation analysis, after antigen retrieval, tissue sections were incubated with 2M HCl for 15 minutes at room temperature to denature DNA and then in neutralizing 0.1M sodium borate buffer (pH 8.5) for 5 minutes. After PBS washes, the rest of the staining was performed according to the standard protocol.
For staining for phagocytosis analysis, 10 μm thick frozen sections were thawed and dried at room temperature and then washed in PBS. Tissue sections were blocked in 0.5% PNB in PBS for at least 1 hour at room temperature, followed by incubation in rabbit anti-cleaved caspase-3 primary antibody diluted 1:500 in 0.5% PNB overnight at 4° C. The next day, slides were washed 6 times for 5 minutes in PBS prior to incubation with goat-anti-rabbit Alexa568 secondary antibody (1:500 in 0.5% PNB) for 1 hour at room temperature. Tissue sections were then washed 6 times for 5 minutes in PBS and blocked overnight at 4° C. in a new buffer of 5% donkey serum, 3% bovine serum albumin, and 0.5% PNB in PBS. […]

[2] = test system: glioma in RCAS-PDGF-B-HA/Nestin-Tv-a; Ink4a/Arf−/− mice; experiment: Long-term survival trial in glioma model; type: in vivo, mouse
[3] = test system: Bone marrow-derived macrophages (BMDMs); experiment: BMDM proliferation/survival (MTT); type: cell-based, mouse
Experimental: (§1) Cell growth rate was determined using the MTT cell proliferation kit (Roche). […] Media was changed every 48 hours. BMDM and CRL-2467 cells were supplemented with 10 ng/ml and 30 ng/ml recombinant mouse CSF-1 respectively unless otherwise indicated. 10 μl of MTT labeling reagent was added to each well and then incubated for 4 hours at 37° C., followed by the addition of 100 μl MTT solubilization reagent overnight. The mixture was gently resuspended and absorbance was measured at 595 nm and 750 nm on a spectraMax 340pc plate reader (Molecular Devices).

[4] = biological target: >200 miscellaneous kinases; experiment: Kinase selectivity panel; type: biochemical; details: read-out: IC50 values for most of >200 miscellaneous kinases
[5] = test system: mouse GBM cell cultures (GBM1-4); experiment: Mouse glioma cell line proliferation (MTT); type: cell-based
Experimental: (§2) For neurosphere formation the cell pellet was resuspended in neurosphere media consisting of mouse NSC Basal Media, NSC proliferation supplements, 10 ng/ml EGF, 20 ng/ml basic-FGF and 1 mg/ml Heparin (Stem Cell Technologies). Fresh media was added every 72 hours for 2 weeks. Primary neurospheres were collected, mechanically disaggregated to a single cell suspension and propagated by serial passaging. To generate glioma cell lines, secondary neurospheres were dissociated to single cell suspensions and cultivated in DMEM+10% FBS as a monolayer. Multiple glioma cell lines were derived from independent mice, denoted GBM1-4 herein. Glioma cells were infected with a pBabe-H2B-mCherry construct as described previously (O. Florey, et al., Nat Cell Biol 13, 1335 (2011)).
as §1

[6] = test system: glioma in RCAS-PDGF-B-HA/Nestin-Tv-a; Ink4a/Arf−/− mice; experiment: Short-term trial, tumor volume by MRI; type: in vivo, mouse
Experimental: Tumor volume in the RCAS-PDGF-B-HA/Nestin-Tv-a; Ink4a/Arf^−/− mice was determined by MRI, and mice were added to the trial when this was at least 4.5 mm^3 or greater. […] MRI scans were performed on the day before treatment was initiated, at the mid-point of the treatment, and at the day before the end of the trial period.
The vehicle control, 20% captisol, was processed in the same manner.
To determine tumor volume, regions of interest (ROI) were circumscribed on T2 weighted images and their corresponding area in mm^2 was multiplied by the slice height of 0.7 mm. The total tumor volume is the sum of the ROI volume in each slice, and the volume for the first and last slice in which the tumor appear is halved to approximate the volume of a trapezoid. When tumor volume was in the range of 4.5-40 mm^3, animals were randomly assigned to treatment groups. […] A size-matched vehicle treated cohort was not included for this cohort having the larger starting tumor burden because these mice would not have been able to survive to the trial endpoint.

[7] = test system: several hundred kinases in the Ambit kinase array; experiment: Ambit kinase array screen; type: binding; details: lower than 50% only against CSF-1R, PDGFRα and PDGFRβ
[8] = test system: neurospheres derived from mouse RCAS-PDGF-B-HA/Nestin-Tv-a; Ink4a/Arf−/− GBMs; experiment: Secondary neurosphere formation assay; type: cell-based
Experimental: as §2
Media was changed every 48 hours. Secondary neurosphere formation was assayed by counting the number of neurospheres obtained after 2 weeks.

[9] = test system: CSF-dependent cell proliferation; experiment: CSF-dependent cell proliferation; type: cell-based; details: read-out: CSF-dependent cell proliferation IC-50

Sequence of PDGFR-β (P09619 33-1106, species assumed): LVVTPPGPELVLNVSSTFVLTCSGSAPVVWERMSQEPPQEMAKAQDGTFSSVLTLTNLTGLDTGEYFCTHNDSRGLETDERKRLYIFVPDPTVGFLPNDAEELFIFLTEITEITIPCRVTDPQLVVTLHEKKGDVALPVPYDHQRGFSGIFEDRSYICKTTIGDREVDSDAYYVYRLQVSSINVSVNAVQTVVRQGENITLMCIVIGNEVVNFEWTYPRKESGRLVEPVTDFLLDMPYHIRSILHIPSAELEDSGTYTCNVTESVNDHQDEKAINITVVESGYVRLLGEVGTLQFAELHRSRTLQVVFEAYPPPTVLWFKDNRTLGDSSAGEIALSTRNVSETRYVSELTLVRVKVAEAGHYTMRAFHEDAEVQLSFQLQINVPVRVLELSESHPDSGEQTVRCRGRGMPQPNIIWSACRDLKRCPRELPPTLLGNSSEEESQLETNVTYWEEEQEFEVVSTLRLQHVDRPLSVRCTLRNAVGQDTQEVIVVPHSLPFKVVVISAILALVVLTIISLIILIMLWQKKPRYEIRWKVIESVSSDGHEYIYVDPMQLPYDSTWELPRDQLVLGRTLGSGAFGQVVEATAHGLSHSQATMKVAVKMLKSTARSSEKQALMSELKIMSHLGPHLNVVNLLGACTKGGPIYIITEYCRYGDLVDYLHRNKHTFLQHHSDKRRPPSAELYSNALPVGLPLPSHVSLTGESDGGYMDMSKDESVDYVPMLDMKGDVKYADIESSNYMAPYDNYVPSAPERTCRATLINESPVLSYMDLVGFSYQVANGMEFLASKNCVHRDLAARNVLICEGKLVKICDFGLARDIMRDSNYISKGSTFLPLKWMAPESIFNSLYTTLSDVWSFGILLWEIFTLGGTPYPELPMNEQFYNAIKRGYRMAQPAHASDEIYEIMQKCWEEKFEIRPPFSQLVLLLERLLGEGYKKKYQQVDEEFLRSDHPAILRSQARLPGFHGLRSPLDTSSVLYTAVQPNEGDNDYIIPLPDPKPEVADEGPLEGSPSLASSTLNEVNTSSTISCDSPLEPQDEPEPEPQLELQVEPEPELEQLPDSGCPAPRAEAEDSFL
Sequence of CSF-1R (P07333 20-972, species assumed): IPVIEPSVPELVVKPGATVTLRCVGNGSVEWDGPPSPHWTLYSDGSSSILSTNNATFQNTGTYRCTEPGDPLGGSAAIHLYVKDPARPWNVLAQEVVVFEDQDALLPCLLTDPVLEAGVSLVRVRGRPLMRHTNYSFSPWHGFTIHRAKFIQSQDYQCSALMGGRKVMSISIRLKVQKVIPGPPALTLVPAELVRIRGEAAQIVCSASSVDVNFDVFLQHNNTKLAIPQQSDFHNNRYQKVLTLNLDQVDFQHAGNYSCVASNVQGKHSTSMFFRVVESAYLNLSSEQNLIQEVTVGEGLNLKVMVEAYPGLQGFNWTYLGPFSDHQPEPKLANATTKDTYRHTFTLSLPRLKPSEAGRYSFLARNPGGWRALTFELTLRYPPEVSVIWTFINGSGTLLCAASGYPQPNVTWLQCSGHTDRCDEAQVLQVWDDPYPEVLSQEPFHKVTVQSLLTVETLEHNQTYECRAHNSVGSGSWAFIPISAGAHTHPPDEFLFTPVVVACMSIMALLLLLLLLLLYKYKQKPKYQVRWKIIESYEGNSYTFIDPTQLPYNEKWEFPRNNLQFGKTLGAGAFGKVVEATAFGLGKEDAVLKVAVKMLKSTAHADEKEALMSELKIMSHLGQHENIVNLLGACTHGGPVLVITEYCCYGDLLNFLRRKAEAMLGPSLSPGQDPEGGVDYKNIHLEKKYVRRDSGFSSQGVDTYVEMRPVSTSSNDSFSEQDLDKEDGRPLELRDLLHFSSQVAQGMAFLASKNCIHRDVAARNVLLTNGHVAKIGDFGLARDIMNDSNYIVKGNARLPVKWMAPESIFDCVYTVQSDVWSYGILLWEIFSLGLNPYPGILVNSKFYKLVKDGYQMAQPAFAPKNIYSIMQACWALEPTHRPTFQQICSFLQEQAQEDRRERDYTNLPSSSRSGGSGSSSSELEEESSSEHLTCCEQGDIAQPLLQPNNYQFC

SMILES: CNC(=O)c1cc(Oc2ccc3nc(N[C@@H]4CCCC[C@H]4O)sc3c2)ccn1 [BLZ945]
Apoptosis (% CC3+) ([1]; BLZ945, Day 3): +17-fold
Macrophages (% CD68+) ([1]; BLZ945, Day 3): +3-fold
Total DAPI+ Cells ([1]; BLZ945, Day 3): −72%
Tumor Cells (% Olig2+) ([1]; BLZ945, Day 3): −27%
Apoptosis (% CC3+) ([1]; BLZ945, Day 7): +6-fold
Macrophages (% CD68+) ([1]; BLZ945, Day 7): +2-fold
Phagocytic Capacity ([1]; BLZ945, Day 7): +5.0-fold
Total DAPI+ Cells ([1]; BLZ945, Day 7): −80%
Tumor Cells (% Olig2+) ([1]; BLZ945, Day 7): −77%
Vasculature (CD31 MVD) ([1]; BLZ945, Day 7): −17%
Apoptosis (% CC3+) ([1]; BLZ945 Large, Day 3): +9-fold
Macrophages (% CD68+) ([1]; BLZ945 Large, Day 3): +2-fold
Phagocytic Capacity ([1]; BLZ945 Large, Day 3): +7.1-fold
Total DAPI+ Cells ([1]; BLZ945 Large, Day 3): −40%
Tumor Cells (% Olig2+) ([1]; BLZ945 Large, Day 3): −14%
Apoptosis (% CC3+) ([1]; BLZ945 Large, Day 7): +2-fold
Macrophages (% CD68+) ([1]; BLZ945 Large, Day 7): +4-fold
Phagocytic Capacity ([1]; BLZ945 Large, Day 7): +6.0-fold
Total DAPI+ Cells ([1]; BLZ945 Large, Day 7): −65%
Tumor Cells (% Olig2+) ([1]; BLZ945 Large, Day 7): −73%
Vasculature (CD31 MVD) ([1]; BLZ945 Large, Day 7): −67%
level of apoptosis (CC3+) ([1]; earlier time point in particular): increase in apoptosis
Olig2 (tumor cell density) ([1]; vs vehicle controls): significantly reduced
treated cohort still alive (symptom-free survival) at trial endpoint ([2]; 200 mg/kg oral gavage daily, 26 weeks post-injection): 64.4%
mice with grade II glioma among 4 treated mice sacrificed for histology ([2]; 12 weeks, of 4 mice): one
tumor free mice among 4 treated mice sacrificed for histology ([2]; 12 weeks, of 4 mice): 3
treated animals either Grade II or tumor free ([2]; long-term trial): 80%
treated animals with Grade III tumor ([2]; long-term trial): 20%
tumor malignancy vs vehicle ([2]; long-term trial): significantly less malignant tumors
mice with no detectable lesions ([2]; mice alive at 26-week trial endpoint): 56%
rate of population doubling of BMDM cells ([3]; 67 nM): same effect on this rate as absence of CSF-1 stimulation
macrophage survival ([3]; 67 nM to 6700 nM, wild-type BMDMs): dramatically blocked macrophage survival
IC50 [4]: > 10 µM
effects on tumor cell lines established from secondary mouse GBM neurospheres [5]: no differences
treated animals with reduced tumor size ([6]; 6 days of dosing): 7 of 11
treated animals with tumor volume increases over 50% ([6]; 6 days, of 11 animals): two
tumor size by MRI ([6]; 7 day trial): no increase in tumor size
Tumor Volume (Day −1 vs Day 6) ([6]; BLZ945, Day 7, tumors 4.5-40 mm^3): +0.68%
treated mice with reduction of at least 30% in tumor size ([6]; large tumor cohort 48.7 to 132 mm^3, 6 days): 6 of 18
tumor volume change ([6]; large tumor cohort, 6 days): decreased in nearly all test animals
activity in Ambit kinase array [7]: lower than 50 % of control
formation of secondary neurospheres [8]: not altered
total number and size of neurospheres ([8]; 670 nM): unaffected
IC50 [9]: ~0.067 µM

SMILES: CCNC(=O)c1cc(Oc2ccc3nc(N[C@@H]4CCCC[C@H]4O)sc3c2)ccn1 [Ig-B]
IC50 (PDGFR-β): 13.9 µM
IC50 (CSF-1R): 0.006 µM

SMILES: CCCNC(=O)c1cc(Oc2ccc3nc(N[C@@H]4CCCC[C@H]4O)sc3c2)ccn1
IC50 (PDGFR-β): 7.7 µM
IC50 (CSF-1R): 0.008 µM

The remaining compounds from weak to strong by IC50 (PDGFR-β), led by results:

IC50 (PDGFR-β): 1.7 µM
IC50 (CSF-1R): 0.003 µM
SMILES: CCn1cc(-c2cc(Oc3ccc4nc(N[C@@H]5CCCC[C@H]5O)sc4c3)ccn2)cn1

IC50 (PDGFR-β): 1.5 µM
IC50 (CSF-1R): 0.007 µM
SMILES: CCCn1cc(-c2cc(Oc3ccc4nc(N[C@@H]5CCCC[C@H]5O)sc4c3)ccn2)cn1 [Ih-C]

IC50 (PDGFR-β): 0.74 µM
IC50 (CSF-1R): 0.0009 µM
SMILES: Cn1cc(-c2cc(Oc3ccc4nc(N[C@@H]5CCCC[C@H]5O)sc4c3)ccn2)cn1 [Ih-A]

IC50 (PDGFR-β): 0.02 µM
IC50 (CSF-1R): 0.001 µM
SMILES: Cn1cc(-c2cc(Oc3ccc4nc(N[C@H]5CCCC[C@@H]5O)sc4c3)ccn2)cn1 [Ih-D]
